Numbers after ± are expanded uncertainties.
Conditions: Quantum Design PPMS relaxation calorimeter; for molar entropy: 101.33 kPa

O=P([O-])([O-])OP(=O)([O-])[O-].[Fe+2].[Fe+2] [iron(II) pyrophosphate]
Conditions | molar entropy [J/K/mol]
1 K, Crystal 2 | 0.08421 ± 0.013
2 K, Crystal 2 | 0.1749 ± 0.027
3 K, Crystal 2 | 0.2781 ± 0.043
4 K, Crystal 2 | 0.4026 ± 0.062
5 K, Crystal 2 | 0.5598 ± 0.086
6 K, Crystal 2 | 0.7639 ± 0.12
7 K, Crystal 2 | 1.033 ± 0.16
8 K, Crystal 2 | 1.379 ± 0.21
9 K, Crystal 2 | 1.814 ± 0.28
10 K, Crystal 2 | 2.349 ± 0.085
11 K, Crystal 2 | 2.988 ± 0.11
12 K, Crystal 2 | 3.726 ± 0.14
13 K, Crystal 2 | 4.55 ± 0.16
14 K, Crystal 2 | 5.45 ± 0.2
15 K, Crystal 2 | 6.422 ± 0.23
16 K, Crystal 2 | 7.473 ± 0.27
17 K, Crystal 2 | 8.609 ± 0.31
18 K, Crystal 2 | 9.826 ± 0.35
19 K, Crystal 1 | 11.08 ± 0.4
20 K, Crystal 1 | 12.28 ± 0.44
25 K, Crystal 1 | 16.82 ± 0.61
30 K, Crystal 1 | 20.58 ± 0.74
35 K, Crystal 1 | 24 ± 0.86
40 K, Crystal 1 | 27.36 ± 0.98
45 K, Crystal 1 | 30.72 ± 1.1
50 K, Crystal 1 | 34.14 ± 1.2
55 K, Crystal 1 | 37.63 ± 1.4
60 K, Crystal 1 | 41.21 ± 1.5
65 K, Crystal 1 | 44.87 ± 1.6
70 K, Crystal 1 | 48.62 ± 1.6
75 K, Crystal 1 | 52.44 ± 1.7
80 K, Crystal 1 | 56.32 ± 1.9
85 K, Crystal 1 | 60.25 ± 2
90 K, Crystal 1 | 64.23 ± 2.1
95 K, Crystal 1 | 68.25 ± 2.3
100 K, Crystal 1 | 72.3 ± 2.4
110 K, Crystal 1 | 80.43 ± 2.7
120 K, Crystal 1 | 88.54 ± 2.9
130 K, Crystal 1 | 96.61 ± 3.2
140 K, Crystal 1 | 104.61 ± 3.5
150 K, Crystal 1 | 112.55 ± 3.7
160 K, Crystal 1 | 120.42 ± 4
170 K, Crystal 1 | 128.21 ± 4.2
180 K, Crystal 1 | 135.93 ± 4.5
190 K, Crystal 1 | 143.57 ± 4.7
200 K, Crystal 1 | 151.13 ± 5
210 K, Crystal 1 | 158.6 ± 5.2
220 K, Crystal 1 | 165.99 ± 5.5
230 K, Crystal 1 | 173.3 ± 5.7
240 K, Crystal 1 | 180.51 ± 6
250 K, Crystal 1 | 187.62 ± 6.2
260 K, Crystal 1 | 194.64 ± 6.4
270 K, Crystal 1 | 201.56 ± 6.7
273.15 K, Crystal 1 | 203.72 ± 6.7
280 K, Crystal 1 | 208.38 ± 6.9
290 K, Crystal 1 | 215.1 ± 7.1
298.15 K, Crystal 1 | 220.5 ± 7.3
300 K, Crystal 1 | 221.72 ± 7.3

Conditions | Triple point temperature [K]
Crystal 2 | 18.96 ± 0.2
